Read-outs that look alike come from different tables or passages of the source. Bounds are passed on as bounds.

The text below walks through data of patent US10618901B2 (GlaxoSmithKline Intellectual Property Development Limited, priority 2014, dated 2020).

For this test, the target named is T1, LRRK2 Ser935 phosphorylation in SH-SY5Y cells over-expressing recombinant full length LRRK2 (Homo sapiens, UniProt Q5S007).
T1 construct: A BacMam virus expressing full length recombinant LRRK2 was purchased from Invitrogen; host or cells: SH-SY5Y (BacMam transduction)
The test is described as follows: Recombinant cellular LRRK2 AlphaScreen assay. Type of test: cell-based. From the text:
Recombinant Cellular LRRK2 AlphaScreen Assay
To determine the activity of compounds against LRRK2 kinase activity in cells, the observed LRRK2 kinase-dependent modulation of LRRK2 Ser 935 phosphorylation (Dzamko et al., 2010, Biochem. J. 430: 405-413) was utilized to develop a quantitative 384 well plate-based immunoassay of LRRK2 Ser935 phosphorylation in the human neuroblastoma cell line SH-SY5Y, engineered to over-express recombinant full length LRRK2 protein.
A BacMam virus expressing full length recombinant LRRK2 was purchased from Invitrogen and amplified by inoculation of SF-9 cells at MOI 0.3 for 4-5 days in Sf-900 III SFM medium supplemented with 3% fetal bovine serum. Infected cell cultures were then centrifuged at 2000 g for 20 minutes, viral supernatant titer determined by anti-gp64 plaque assay and stored at 4° C.
Affinity-purified anti-phospho LRRK2 Ser935 sheep polyclonal antibody (Dzamko et al., 2010, Biochem. J. 430: 405-413) was biotinylated by standard methods (PerkinElmer). Anti-LRRK2 rabbit polyclonal antibody was purchased from Novus Biologicals. AlphaScreen Protein A IgG Kit (including acceptor and donor beads) was purchased from Perkin Elmer.
SH-SY5Y cells were grown in DMEM/F12 medium with 10% dialysed fetal bovine serum and harvested by treatment with 0.5% trypsin-EDTA for 5 minutes at 37° C. followed by centrifugation at 1000 rpm for 4 minutes. The cell pellet was resuspended in Opti-MEM reduced serum media (Invitrogen) at 200,000 cells/ml and mixed with the BacMam LRRK2 virus at M01=50. 50 μl cell solutions were then dispensed to each well of a 384-well plate and incubated at 37° C., 5% CO2 for 24 hours.
Serial dilutions of test compounds were prepared in Opti-MEM reduced serum media (Invitrogen) and 5.6 ul transferred from compound plate to cell assay plate to achieve a top final assay concentration of 10 uM. DMSO was used in certain wells as controls. Cells were incubated at 37° C., 5% CO2 for 60 minutes. The medium was then removed and cells lysed by addition of 20 ul cell lysis buffer (Cell Signaling Technology) and incubation at 4° C. for 20 minutes. 10 ul of antibody/acceptor bead mix [(1/1000 biotinylated-pS935 LRRK2 antibody, 1/1000 total-LRRK2 antibody, 1/100 Acceptor beads in AlphaScreen detection buffer (25 mM Hepes (pH 7.4), 0.5% Triton X-100, 1 mg/ml Dextran 500 and 0.1% BSA)] was then added to each well and plates incubated for 2 hours at ambient temperature in the dark. 10 μl of donor beads solution (1/33.3 donor beads in AlphaScreen detection buffer) was then added to each well. Following incubation for a further 2 hours at ambient temperature in the dark, plates were read on an EnVision™ plate reader at emission 520-620 nm with excitation 680 nm. Dose response curve data was based on sigmoidal dose-response model.
(In general: In Alpha technology, singlet oxygen from a donor bead excites a nearby acceptor bead.)

[1] abbreviates: read-out: pIC50 in the recombinant cellular LRRK2 alphaScreen assay (converted).

T1 sequence (Q5S007 whole entry): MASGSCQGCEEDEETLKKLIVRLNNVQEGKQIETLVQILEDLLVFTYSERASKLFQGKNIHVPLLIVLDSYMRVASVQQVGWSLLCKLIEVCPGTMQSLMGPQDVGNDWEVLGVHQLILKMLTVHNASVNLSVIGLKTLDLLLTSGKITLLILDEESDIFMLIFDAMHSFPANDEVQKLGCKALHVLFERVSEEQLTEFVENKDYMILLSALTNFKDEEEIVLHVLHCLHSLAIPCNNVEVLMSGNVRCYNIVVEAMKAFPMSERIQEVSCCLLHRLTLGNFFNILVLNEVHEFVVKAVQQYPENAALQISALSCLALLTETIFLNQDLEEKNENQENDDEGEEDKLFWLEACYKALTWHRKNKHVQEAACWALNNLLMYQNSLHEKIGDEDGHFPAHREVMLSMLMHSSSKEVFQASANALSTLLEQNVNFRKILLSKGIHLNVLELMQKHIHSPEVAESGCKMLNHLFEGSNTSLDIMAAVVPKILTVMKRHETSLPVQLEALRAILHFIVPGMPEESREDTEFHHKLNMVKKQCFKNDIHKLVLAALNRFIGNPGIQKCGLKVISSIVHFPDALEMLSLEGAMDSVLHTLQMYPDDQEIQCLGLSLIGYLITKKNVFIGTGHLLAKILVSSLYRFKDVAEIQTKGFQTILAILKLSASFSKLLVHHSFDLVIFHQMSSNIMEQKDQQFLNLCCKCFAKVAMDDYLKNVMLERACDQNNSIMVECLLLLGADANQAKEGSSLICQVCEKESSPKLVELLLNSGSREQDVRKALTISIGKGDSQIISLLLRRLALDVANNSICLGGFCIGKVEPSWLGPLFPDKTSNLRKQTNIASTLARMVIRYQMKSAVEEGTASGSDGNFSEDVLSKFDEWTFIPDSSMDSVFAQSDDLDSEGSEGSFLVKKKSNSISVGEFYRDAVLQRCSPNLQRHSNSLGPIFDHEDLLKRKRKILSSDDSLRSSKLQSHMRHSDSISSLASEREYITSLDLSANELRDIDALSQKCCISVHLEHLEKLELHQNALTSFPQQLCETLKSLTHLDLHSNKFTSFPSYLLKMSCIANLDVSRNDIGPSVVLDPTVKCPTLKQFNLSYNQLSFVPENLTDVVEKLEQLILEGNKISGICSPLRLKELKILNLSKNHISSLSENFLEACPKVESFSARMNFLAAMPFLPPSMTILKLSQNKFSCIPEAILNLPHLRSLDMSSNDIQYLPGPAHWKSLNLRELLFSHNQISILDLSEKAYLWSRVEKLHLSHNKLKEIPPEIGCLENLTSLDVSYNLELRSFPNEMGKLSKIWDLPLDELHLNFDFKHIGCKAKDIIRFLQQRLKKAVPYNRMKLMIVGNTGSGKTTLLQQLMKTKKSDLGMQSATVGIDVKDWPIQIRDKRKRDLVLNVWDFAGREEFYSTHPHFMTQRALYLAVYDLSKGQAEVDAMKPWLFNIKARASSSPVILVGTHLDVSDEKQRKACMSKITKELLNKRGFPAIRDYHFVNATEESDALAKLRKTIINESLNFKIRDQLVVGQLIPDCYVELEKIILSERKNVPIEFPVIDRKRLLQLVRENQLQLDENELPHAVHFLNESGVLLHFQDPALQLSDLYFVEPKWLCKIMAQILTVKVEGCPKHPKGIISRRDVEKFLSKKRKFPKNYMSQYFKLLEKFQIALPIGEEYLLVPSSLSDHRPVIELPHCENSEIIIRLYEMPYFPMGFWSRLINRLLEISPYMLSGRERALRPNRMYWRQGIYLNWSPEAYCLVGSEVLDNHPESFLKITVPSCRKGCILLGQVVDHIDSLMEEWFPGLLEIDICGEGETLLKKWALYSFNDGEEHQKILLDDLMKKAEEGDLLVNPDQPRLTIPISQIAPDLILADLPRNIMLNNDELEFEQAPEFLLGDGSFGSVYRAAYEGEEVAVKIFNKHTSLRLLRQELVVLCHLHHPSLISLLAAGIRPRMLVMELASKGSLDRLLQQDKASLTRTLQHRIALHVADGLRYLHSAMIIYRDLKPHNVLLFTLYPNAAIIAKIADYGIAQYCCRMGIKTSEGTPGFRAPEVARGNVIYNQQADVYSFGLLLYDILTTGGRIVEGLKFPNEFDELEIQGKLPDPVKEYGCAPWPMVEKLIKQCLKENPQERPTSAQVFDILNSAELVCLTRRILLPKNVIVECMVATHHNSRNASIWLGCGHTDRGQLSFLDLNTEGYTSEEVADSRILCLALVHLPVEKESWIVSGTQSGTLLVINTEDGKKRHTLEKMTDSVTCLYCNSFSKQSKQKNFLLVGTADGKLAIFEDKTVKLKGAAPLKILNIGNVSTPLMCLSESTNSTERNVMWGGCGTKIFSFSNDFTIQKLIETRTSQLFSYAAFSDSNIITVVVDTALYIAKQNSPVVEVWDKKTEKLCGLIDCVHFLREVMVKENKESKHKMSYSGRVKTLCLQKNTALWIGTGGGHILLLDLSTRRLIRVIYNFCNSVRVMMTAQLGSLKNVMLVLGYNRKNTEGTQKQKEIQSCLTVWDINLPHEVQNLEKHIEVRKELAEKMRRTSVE

`CCOc1nc(Nc2cnn([C@@H]3C[C@H](F)CN(C4COC4)C3)c2Cl)nc2[nH]ccc12` [Example E151, N-(5-chloro-1-((3R,5S)-5-fluoro-1-(oxetan-3-yl)piperidin-3-yl)-1H-pyrazol-4-yl)-4-ethoxy-7H-pyrrolo[2,3-d]pyrimidin-2-amine]: the IC50 under setting [1] was at most 100 nM.

Turning to `CCOc1nc(Nc2cnn([C@@H]3CCN(C)C3)c2C)nc2[nH]cc(C#N)c12` [Example E51, (R)-4-ethoxy-2-((5-methyl-1-(1-methyl-pyrrolidin-3-yl)-1H-pyrazol-4-yl)-amino)-7H-pyrrolo-[2,3-d]pyrimidine-5-carbonitrile], the IC50 under setting [1] was at most 100 nM.

For the compound `CCOc1nc(Nc2cnn(CCN3CCO[C@H](C)C3)c2C)nc2[nH]ccc12` [Example E83, (R)-4-ethoxy-N-(5-methyl-1-(2-(2-methylmorpholino)ethyl)-1H-pyrazol-4-yl)-7H-pyrrolo [2,3-d]pyrimidin-2-amine], under setting [1], the IC50 was at most 100 nM.

In the case of `CCOc1nc(Nc2cnn(C3COC3)c2C)nc2[nH]ccc12` [Example E34, 4-ethoxy-N-(5-methyl-1-(oxetan-3-yl)-1H-pyrazol-4-yl)-7H-pyrrolo[2,3-d]pyrimidin-2-amine], the IC50 under setting [1] is at most 100 nM.

Take `CCOc1nc(Nc2cnn([C@H]3CCN(C4COC4)C[C@@H]3F)c2C)nc2[nH]ccc12` [Example E97, 4-ethoxy-N-(1-((3S,4S)-3-fluoro-1-(oxetan-3-yl)piperidin-4-yl)-5-methyl-1H-pyrazol-4-yl)-7H-pyrrolo[2,3-d]pyrimidin-2-amine]: the IC50 under setting [1] was at most 100 nM.

For `CCOc1nc(Nc2cnn(CCOC)c2C)nc2[nH]cc(C#N)c12` [Example E47, 4-ethoxy-2-((1-(2-methoxyethyl)-5-methyl-1H-pyrazol-4-yl)-amino)-7H-pyrrolo-[2,3-d]-pyrimidine-5-carbonitrile], under setting [1], the IC50 was at most 100 nM.

Take `CCOc1nc(Nc2cnn(C3CCC(N4CCOCC4)CC3)c2Cl)nc2[nH]ccc12` (stereo not shown) [Example E149, N-(5-chloro-1-(4-morpholinocyclohexyl)-1H-pyrazol-4-yl)-4-ethoxy-7H-pyrrolo[2,3-d] pyrimidin-2-amine]: under setting [1], the IC50 was at most 100 nM.

As for `CCOc1nc(Nc2cnn(C3CCOC3)c2C)nc2[nH]ccc12` (single isomer, unassigned) [Example E16, 4-ethoxy-N-(5-methyl-1-(tetrahydrofuran-3-yl)-1H-pyrazol-4-yl)-7H-pyrrolo-[2,3-d]-pyrimidin-2-amine], the IC50 under setting [1] was at most 100 nM.

Consider `CCOc1nc(Nc2cnn(C3CN(C4COC4)CCO3)c2Cl)nc2[nH]ccc12` (racemic) [Example E140, (±)-N-(5-chloro-1-(4-(oxetan-3-yl)morpholin-2-yl)-1H-pyrazol-4-yl)-4-ethoxy-7H-pyrrolo [2,3-d]pyrimidin-2-amine], for which the IC50 under setting [1] was at most 100 nM.

For `CCOc1nc(Nc2cnn(CCN3CCO[C@@H](C(F)F)C3)c2C)nc2[nH]ccc12` [Example E99, (R)—N-(1-(2-(2-(difluoromethyl)morpholino)ethyl)-5-methyl-1H-pyrazol-4-yl)-4-ethoxy-7H-pyrrolo[2,3-d]pyrimidin-2-amine], the IC50 under setting [1] was at most 100 nM.

In the case of `CCOc1nc(Nc2cnn(CC3COC3)c2C)nc2[nH]ccc12` [Example E29, 4-ethoxy-N-(5-methyl-1-(oxetan-3-yl-methyl)-1H-pyrazol-4-yl)-7H-pyrrolo-[2,3-d]pyrimidin-2-amine], the IC50 under setting [1] is at most 100 nM.

Turning to `CCOc1nc(Nc2cnn(C3CCOCC3)c2C)nc2[nH]cc(C#N)c12` [Example E46, 4-ethoxy-2-((5-methyl-1-(tetrahydro-2H-pyran-4-yl)-1H-pyrazol-4-yl)-amino)-7H-pyrrolo-[2,3-d]-pyrimidine-5-carbonitrile], the IC50 under setting [1] was at most 100 nM.

As to `CCOc1nc(Nc2cnn(CCN3CCOC[C@@H]3C)c2C)nc2[nH]ccc12` [Example E82, (S)-4-ethoxy-N-(5-methyl-1-(2-(3-methylmorpholino)ethyl)-1H-pyrazol-4-yl)-7H-pyrrolo [2,3-d]pyrimidin-2-amine], under setting [1], the IC50 is at most 100 nM.

For `CCOc1nc(Nc2cnn(C3CCN(C4COC4)CC3F)c2CC)nc2[nH]ccc12` (single isomer, unassigned) [Example E130, (trans)-4-ethoxy-N-(5-ethyl-1-(3-fluoro-1-(oxetan-3-yl)piperidin-4-yl)-1H-pyrazol-4-yl)-7H-pyrrolo[2,3-d]pyrimidin-2-amine], the IC50 under setting [1] was at most 100 nM.

Turning to `CCOc1nc(Nc2cnn(CCN3CC4CC4C3)c2C)nc2[nH]ccc12` (stereo not shown) [Example E10, N-(1-(2-(3-aza-bicyclo-[3.1.0]hexan-3-yl)ethyl)-5-methyl-1H-pyrazol-4-yl)-4-ethoxy-7H-pyrrolo-[2,3-d]pyrimidin-2-amine], under setting [1], the IC50 was at most 100 nM.

For `CCOc1nc(Nc2cnn([C@H]3C[C@H](F)CN(C4COC4)C3)c2Cl)nc2[nH]ccc12` [Example E150, N-(5-chloro-1-((3S,5S)-5-fluoro-1-(oxetan-3-yl)piperidin-3-yl)-1H-pyrazol-4-yl)-4-ethoxy-7H-pyrrolo[2,3-d]pyrimidin-2-amine], the IC50 runs as follows: (LRRK2 Ser935 phosphorylation, 60 minutes, read-out: recombinant cellcular LRRK2 alphaScreen assay (pIC50) (converted)) 31.6 nM; under setting [1], at most 100 nM.

On to `CCOc1nc(Nc2cnn(CC(C)(C)N3CCOCC3)c2C)nc2[nH]ccc12` [Example E88, 4-ethoxy-N-(5-methyl-1-(2-methyl-2-morpholinopropyl)-1H-pyrazol-4-yl)-7H-pyrrolo[2,3-d]pyrimidin-2-amine], for which the IC50 under setting [1] was at most 100 nM.

On to `CCOc1nc(Nc2cnn(C3CCN(C4COC4)C3)c2C)nc2[nH]ccc12` (stereo not shown) [Example E66, 4-Ethoxy-N-(5-methyl-1-(1-(oxetan-3-yl)pyrrolidin-3-yl)-1H-pyrazol-4-yl)-7H-pyrrolo[2,3-d]pyrimidin-2-amine], for which, under setting [1], the IC50 was at most 100 nM.

Consider `CCOc1nc(Nc2cnn(C3CC(N4CCOCC4)CCC3(F)F)c2Cl)nc2[nH]ccc12` (single isomer, unassigned) [Example E148, trans-N-(5-chloro-1-(2,2-difluoro-5-morpholinocyclohexyl)-1H-pyrazol-4-yl)-4-ethoxy-7H-pyrrolo[2,3-d]pyrimidin-2-amine], for which the IC50 under setting [1] is at most 100 nM.

`CCOc1nc(Nc2cnn(CC3COC3)c2Cl)nc2[nH]ccc12` [Example E28, N-(5-chloro-1-(oxetan-3-yl-methyl)-1H-pyrazol-4-yl)-4-ethoxy-7H-pyrrolo-[2,3-d]pyrimidin-2-amine]: the IC50 under setting [1] was at most 100 nM.

For `CCOc1nc(Nc2cn(CCOC)nc2C)nc2[nH]ccc12` [Example E8, 4-ethoxy-N-(1-(2-methoxyethyl)-3-methyl-1H-pyrazol-4-yl)-7H-pyrrolo-[2,3-d]-pyrimidin-2-amine], under setting [1], the IC50 was at most 100 nM.
